Assay results as given in patent publication US9737493B2, “Compositions and methods for modulating DNMT1 inhibitor activity” (University of Louisville Research Foundation, Inc., priority 2012, dated 2017).

Columns and labels:
[1] = system: A549 non-small cell lung cancer cells; test: MTT cell proliferation assay; type: cell-based, human; details: A549, MTT, in combination with XB05, 72 h
Procedure: (§1) Cell Proliferation Assays. The antiproliferative activity of XB05 was tested using a previously published 3-(4,5-dimethylthiazol-2-yl)-2,5-diphenyltetrazolium bromide (MTT) assay protocol (Girvan et al., “AGRO100 inhibits activation of nuclear factor-kappaB (NF-kappaB) by forming a complex with NF-kappaB essential modulator (NEMO) and nucleolin” Molecular Cancer Therapeutics (2006) Vol. 5, No. 7, pp. 1790-1799). Briefly, cells were seeded in quadruplicate wells in 96-well plates and allowed to adhere overnight. […] Plates were incubated with XB05 for 72 h, during which the cell culture medium was not changed. Cell viability was determined and the background corresponding to medium alone (no cells) was subtracted. Data were analyzed as described in the Brief Description of the Drawings.
(§2) XB05 has Cancer-Selective Antiproliferative Activity. XB05 was tested to determine its antiproliferative activity in a variety of human cell lines that are derived from malignant tissues or from non-malignant (immortalized but not transformed) cells and listed in FIG. 1B. As described in Materials and Methods, cells were treated with varying concentrations of XB05 for 72 h and evaluated using the MTT cell proliferation assay.

[2] = system: U937 myeloid leukemia cells; test: MTT cell proliferation assay; type: cell-based, human; details: U937, MTT and flow cytometric assays, in combination with XB05, 72 h
Procedure: as §1, §2

MDA-MB-231 cells = test: Clonogenic cell survival assay; type: cell-based, human; details: MDA-MB-231, NAC and GSH 5 mM, AA 100 μM, 10 days
Procedure: Clonogenic cell survival assays were conducted with MDA-MB-231 cells treated as indicated and grown in culture for 10 days (see Methods). Clonogenic Assays. Cells were plated at low density (300 cells/well) in 6-well tissue culture plates, and allowed to adhere overnight. Where indicated, the medium was then replaced with fresh medium containing antioxidants or vehicle (sterile ultrapure H2O). XB05 or vehicle control (DMSO) was then added directly to the medium at the concentrations indicated. After 10 days, cells were fixed with 4% paraformaldehyde in PBS and stained with Accustain Crystal Violet Solution (Sigma Aldrich) washed and air-dried. Colonies were counted using the cell counter feature in the Image J software, available from the National Institute of Health (<<rsbweb.nih.gov/ij/download.html>>).

A549 cells [3] = type: cell-based; details: for effect of antioxidant on XB05-induced cell death: A549, annexin/PI, in combination with XB05, 72 h
Procedure: Some cells were treated with buthionine sulfoximine (BSO, 200 μM) plus diethyl maleate (DEM, 1 mM) for 3 h as a positive control for GSH depletion. Bar graph indicates mean+/−SEM from three independent experiments. […] Membranes were stripped and reprobed for Ku-70 as a loading control.
Flow Cytometric Assays. Analyses were performed using a FACScalibur flow cytometer (BD Biosciences, Mountain View, Calif.) and FlowJo software (Tree Star, Inc., Ashland, Oreg.). Cells were treated as indicated in the figures and in the Brief Description of the Drawings. Cells were harvested by using TrypLE Cell Dissociation Reagent (Life Technologies). For cell death analyses, cells (adherent and detached cells) were stained with annexin-V-FITC and propidium iodide (PI) using the Apoptosis Detection Kit (BD Biosciences, San Jose, Calif.), according to the manufacturer's instructions. For cell-cycle distribution, cells were fixed, and stained with PI using the Cycle Test Plus kit (Becton Dickinson, Franklin Lakes, N.J.). For detection of γ-H2AX, cells were washed with PBS and fixed in 4% paraformaldehyde in PBS for 10 min at 37° C. […] After washing with PBS, cells were re-suspended in PBS containing 1 μg/mL PI to allow exclusion of non-viable cells. For detection of mitochondrial superoxide, cells were harvested, washed with PBS and stained with 5 μM MitoSOX™ Red (Life Technologies) in warm PBS for 10 min at 37° C. Cells were then washed twice with PBS, re-suspended at a density of 1×10^6 cells/mL in PBS and analyzed by flow cytometry.

A549 cells [4] = details: A549, in combination with XB05, 10 days
Procedure: (C) Clonogenic cell survival assays were conducted in A549 cells treated as indicated and grown in culture for 10 days (see Methods). Bar graph indicates mean values (+/−SEM) for colony growth inhibition from 3 independent experiments. […] Clonogenic Assays. Cells were plated at low density (300 cells/well) in 6-well tissue culture plates, and allowed to adhere overnight. Where indicated, the medium was then replaced with fresh medium containing antioxidants or vehicle (sterile ultrapure H2O). XB05 or vehicle control (DMSO) was then added directly to the medium at the concentrations indicated. After 10 days, cells were fixed with 4% paraformaldehyde in PBS and stained with Accustain Crystal Violet Solution (Sigma Aldrich) washed and air-dried. Colonies were counted using the cell counter feature in the Image J software, available from the National Institute of Health (<<rsbweb.nih.gov/ij/download.html>>).

U937 cells [5] = test: Clonogenic cell survival assay; type: cell-based, human; details: U937, 100 μM BHA, data not shown
U937 cells [6] = test: Annexin/PI flow cytometric cell death analysis; type: cell-based, human; details: U937, 50 and 100 μM BSO, 1 μM XB05, 72 h
Procedure: Data shown are representative of three independent experiments. (B) The cell lines indicated were treated with DMSO vehicle or XB05 (1 μM for U937 and Hs27, or 2 μM for A549) for the timepoints indicated. (C) The cell lines indicated were treated with DMSO vehicle, XB05 (1 μM for U937 and Hs27, or 2 μM for A549) or Thapsigargin positive control (2 μM) for 24 h. Densitometry was performed to quantify western blot band intensities for phospho-eIF2α (ser51), total eIF2α and BiP (representative blot shown in FIG. 8D). All values were normalized to DMSO vehicle control. Bar graphs indicate the average band intensity for three independent experiments, +/−the standard error of the mean. Statistical significance for XB05 compared to vehicle is indicated (*p≦0.05 and **p≦0.01).
Flow Cytometric Assays. Analyses were performed using a FACScalibur flow cytometer (BD Biosciences, Mountain View, Calif.) and FlowJo software (Tree Star, Inc., Ashland, Oreg.). Cells were treated as indicated in the figures and in the Brief Description of the Drawings. Cells were harvested by using TrypLE Cell Dissociation Reagent (Life Technologies). […] Cells were then washed twice with PBS, re-suspended at a density of 1×10^6 cells/mL in PBS and analyzed by flow cytometry.

Colo-205 xenografts = Colo-205 xenografts in nude mice; type: in vivo; details: 25 mg/kg daily for 21 days, i.v.

| Compound | effect of antioxidant on antiproliferative effects of XB05 [1] | protection from antiproliferative and cytotoxic effects of XB05 [2] | protection from cytotoxic effects of XB05 (MDA-MB-231 cells) | effect of antioxidant on XB05-induced cell death (A549 cells [3]) | effect of antioxidant on XB05 effect on clonogenic survival (A549 cells [4]) | further results |
| --- | --- | --- | --- | --- | --- | --- |
| O=C1O[C@H]([C@@H](O)CO)C(O)=C1O [AA, L-ascorbic acid] | no effect | not | not | slightly enhanced the pro-apoptotic activity of XB05 | no protective effect | – |
| COc1ccc(O)c(C(C)(C)C)c1 [BHA, butylated hydroxyanisole] | – | – | – | – | – | protection from XB05 activity (U937 cells [5]): no protective effect |
| CCCCS(=N)(=O)CCC(N)C(=O)O (centres unmarked) [BSO, buthionine sulfoximine] | – | – | – | – | – | cytotoxicity of BSO plus XB05 compared to XB05 alone (A549 cells [3]; A549, 50 and 100 μM BSO, 2 μM XB05, 72 h): enhanced cytotoxicity compared to XB05 treatment alone; cytotoxicity of BSO plus XB05 compared to XB05 alone (U937 cells [6]): enhanced cytotoxicity compared to XB05 treatment alone |
| N[C@@H](CCC(=O)N[C@@H](CS)C(=O)NCC(=O)O)C(=O)O [GSH, reduced glutathione] | diminish the antiproliferative effects of XB05 | protect these cells from the antiproliferative and cytotoxic effects of XB05 | protect these cells from the cytotoxic effects of XB05 | protected cells from XB05-induced apoptosis and nonapoptotic cell death | abrogated the effect of XB05 on clonogenic survival | – |
| CC/C=C\CCC(O)C#CC(F)(F)Br (centres unmarked) [LD-01-072] | – | – | – | – | – | in vivo antitumor efficacy (Colo-205 xenografts): in vivo antitumor efficacy; non-specific toxicity judged by body weight (Colo-205 xenografts): no evidence of any severe non-specific toxicities |
| CC(=O)N[C@@H](CS)C(=O)O [NAC, N-acetyl cysteine] | diminish the antiproliferative effects of XB05 | protect these cells from the antiproliferative and cytotoxic effects of XB05 | protect these cells from the cytotoxic effects of XB05 | protected cells from XB05-induced apoptosis and nonapoptotic cell death | abrogated the effect of XB05 on clonogenic survival | – |
